Data as given in patent US7235377B2, “Global test of the hemostatic system” (The University of Vermont and State Agriculture College, priority 2003, dated 2007).

What was measured:
[1] = tested on: whole blood; test: Tissue factor initiated whole blood assay, thrombin (TAT) at 20 minutes, historical record of treated individuals/blood; parameters: species or system human
[2] = INR of individuals on coumadin therapy; format: in vivo, human
Experimental: Thrombin is illustrated for the group of 13 healthy individuals (♦/⋄, column 1), with the 6-month time period for subject 10 (⋄) illustrated. […] An historical record of whole blood data for individuals on coumadin therapy (●/∘) is seen in column 3. […] Individuals with hemophilia A; or induced hemophilia B; with (Δ) and without (▴) in vitro replacement were reevaluated for their 20 minute time point and are seen in column 4. Two individuals with factor XI deficiency (▪) at low tissue factor are shown in column 5. Thrombin generation from blood treated with anti platelet IIbIIIa therapeutics (*), ReoPro and Integrellin are represented in column 6.

[3] = one individual on coumadin therapy over a 6 month time period

CC(=O)CC(c1ccccc1)c1c(O)c2ccccc2oc1=O (stereo not drawn) [Coumadin]
TAT level, Mean ([1]; mean per group, repeated measures on individuals averaged, 20 min): 273.5 | mean thrombin [1, 3]: 166.6 ± 121.3 nM | variation of thrombin levels [1, 3]: approximately 325 nM | thrombin levels (range) ([1]; one individual on coumadin therapy, stable INR, studied 10 times over 6 months, 20 min): 9.3 to 334.7 nM | INR ([2]; group of 7 individuals stably anticoagulated on coumadin, studied once): 2.3±0.5 | INR ([2]; one individual on coumadin therapy studied 10 times over 6 months): 2.1±0.4
